Test results reported in patent publication US7276519B2, “Thieno[3,2-b]pyridine-6-carbonitriles and thieno[2,3-b]pyridine-5-carbonitriles as protein kinase inhibitors” (Wyeth, priority 2002, dated 2007).
pIC50: −log10 of the molar value. Where two headings read alike, the source gives them in different places.

What was measured:
[1] = test system: Rat2 fibroblasts stably transformed with v-Src/Hu c-Src fusion gene; assay: Anchorage independent Src-transformed fibroblast proliferation assay; type: cell-based, rat; conditions: for inhibition at 100 µM: read-out: Src cells % inh at 100 μM; for pIC50: suspension growth, MTS readout Day 5, read-out: Src cells IC50; for IC50: read-out: Src Cells IC50 μM or % inhib at 10 μM (IC50 values)
Protocol: Anchorage Independent Src-Transformed Fibroblast Proliferation Assay Rat2 fibroblasts stably transformed with a plasmid containing a CMV promotor controlled v-Src/Hu c-Src fusion gene in which the catalytic domain of human c-Src was inserted in place of the v-Src catalytic domain in the v-Src gene are used for the measurement of src dependent suspension growth. […] Multiple entries for a given compound indicate that it was tested multiple times.

[2] = Rattus norvegicus, Rat2, Table 1, at 100 μM
[3] = Rattus norvegicus, Rat2, 120 h, Table 1

| Structure (SMILES) | melting point | pIC50 [1, 3] | also measured |
| --- | --- | --- | --- |
| COc1cc(Nc2c(C#N)cnc3sc(CCCCN4CCOCC4)cc23)cc(OC)c1OC [Example 31, 2-[4-(4-Morpholinyl)butyl]-4-[(3,4,5-trimethoxyphenyl)amino]-thieno[2,3-b]pyridine-5-carbonitrile] | – | 4.46 | – |
| COc1ccc(C#Cc2cc3ncc(C#N)c(Nc4cc(OC)c(Cl)cc4Cl)c3s2)cc1 [Example 21, 7-[(2,4-Dichloro-5-methoxyphenyl)amino]-2-[(4-methoxyphenyl)ethynyl]thieno[3,2-b]pyridine-6-carbonitrile] | 249 to 250 °C | 4.49 | – |
| COc1cc(Nc2c(C#N)cnc3cc(-c4ccc(CN5CCN(Cc6ccccn6)CC5)cc4)sc23)c(Cl)cc1Cl [Example 124, 7-[(2,4-dichloro-5-methoxyphenyl)amino]-2-(4-{[4-(pyridin-2-ylmethyl)piperazin-1-yl]methyl}phenyl)thieno[3,2-b]pyridine-6-carbonitrile] | 105 to 107 °C | – | IC50 ([1]; Rattus norvegicus, Rat2, Table 3): 0.914 µM; IC50 ([1]; Table 3): 0.576 µM |
| COc1cc(Nc2c(C#N)cnc3cc(C#Cc4cccnc4)sc23)c(Cl)cc1Cl [Example 35, 7-[(2,4-Dichloro-5-methoxyphenyl)amino]-2-(pyridin-3-ylethynyl)thieno[3,2-b]pyridine-6-carbonitrile] | 249 to 250 °C | 6.01 | – |
| N#Cc1cnc2ccsc2c1Sc1ccc(Cl)cc1Cl [Example 12, 7-[(2,4-Dichlorophenyl)thio]thieno[3,2-b]pyridine-6-carbonitrile] | 126 to 128 °C | – | inhibition at 10 µM ([1]; Rattus norvegicus, Rat2, Table 1, at 10 μM, read-out: Src cells % inh at 10 μM): 23% |
| COc1cc(Nc2c(C#N)cnc3c(Br)csc23)c(Cl)cc1Cl [Example 139, 3-Bromo-7-[(2,4-dichloro-5-methoxyphenyl)amino]thieno[3,2-b]pyridine-6-carbonitrile] | 265 to 266 °C | – | – |
| COc1cc(Nc2c(C#N)cnc3cc(-c4ccsc4C=O)sc23)c(Cl)cc1Cl [Example 78, 7-[(2,4-dichloro-5-methoxyphenyl)amino]-2-(2-formylthien-3-yl)thieno[3,2-b]pyridine-6-carbonitrile] | 128 to 130 °C | – | – |
| COc1cc(Nc2c(C#N)cnc3cc(-c4cccc(CN5CCOCC5)c4)sc23)c(Cl)cc1Cl [Example 26, 7-[(2,4-Dichloro-5-methoxyphenyl)amino]-2-[3-(morpholin-4-ylmethyl)phenyl]thieno[3,2-b]pyridine-6-carbonitrile] | 205 to 207 °C | 6.00 | – |
| COc1cc(N(C(C)=O)c2c(C#N)cnc3ccsc23)c(Cl)cc1Cl [Example 63, N-(6-Cyanothieno[3,2-b]pyridin-7-yl)-N-(2,4-dichloro-5-methoxyphenyl)acetamide] | 202 to 204 °C | – | – |
| COc1cc(Nc2c(C#N)cnc3sccc23)c(Cl)cc1Cl [Example 5, 4-[(2,4-Dichloro-5-methoxyphenyl)amino]thieno[2,3-b]pyridine-5-carbonitrile] | 197 to 199 °C | 5.25 | – |
| COc1cc(Nc2c(C#N)cnc3sc(C#Cc4cccnc4)cc23)c(Cl)cc1Cl [Example 52, 4-[(2,4-Dichloro-5-methoxyphenyl)amino]-2-(pyridin-3-ylethynyl)thieno[2,3-b]pyridine-5-carbonitrile] | 191 °C (dec.) | – | inhibition at 100 µM [1, 2]: 61% |
| COc1cc(Nc2c(C#N)cnc3cc(C#CCN(C)C)sc23)c(Cl)cc1Cl [Example 23, 7-[(2,4-Dichloro-5-methoxyphenyl)amino]-2-[3-(dimethylamino)prop-1-ynyl]thieno[3,2-b]pyridine-6-carbonitrile] | 164 to 166 °C | 5.25 | – |
| N#Cc1cnc2ccsc2c1Oc1ccc(Cl)cc1Cl [Example 11, 7-[(2,4-Dichlorophenoxy)]thieno[3,2-b]pyridine-6-carbonitrile] | 158 to 160 °C | 4.64 | – |
| COc1cc(Nc2c(C#N)cnc3cc(-c4ccc(CN5CCC(O)CC5)cc4)sc23)c(Cl)cc1Cl [Example 40, 7-[(2,4-Dichloro-5-methoxyphenyl)amino]-2-{4-[(4-hydroxypiperidin-1-yl)methyl]phenyl}thieno[3,2-b]pyridine-6-carbonitrile] | 149 to 150 °C | 6.15 | pIC50 ([1]; Table 1): 6.37 |
| COc1cc(Nc2c(C#N)cnc3cc(C#Cc4ccccn4)sc23)c(Cl)cc1Cl [Example 22, 7-[(2,4-Dichloro-5-methoxyphenyl)amino]-2-(pyridin-2-ylethynyl)thieno[3,2-b]pyridine-6-carbonitrile] | 237 to 239 °C | 6.00 | – |
| COc1cc(Nc2c(C#N)cnc3sc(CCCCO)cc23)cc(OC)c1OC [Example 30, 2-(4-Hydroxybutyl)-4-[(3,4,5-trimethoxyphenyl)amino]-thieno[2,3-b]pyridine-5-carbonitrile] | 125 to 127 °C | 4.64 | pIC50 ([1]; Table 1): 4.60 |
| COc1cc(Nc2c(C#N)cnc3cc(-c4coc(C=O)c4)sc23)c(Cl)cc1Cl [Example 138, 7-[(2,4-dichloro-5-methoxyphenyl)amino]-2-(5-formyl-3-furyl)thieno[3,2-b]pyridine-6-carbonitrile] | 223 to 224 °C | – | – |
| COc1cc(Nc2c(C#N)cnc3cc(-c4ccc(CN5CCN(C)CC5)cc4)sc23)c(Cl)cc1Cl [Example 16, 7-[(2,4-Dichloro-5-methoxyphenyl)amino]-2-[4-(4-methylpiperazin-1-ylmethyl)phenyl]thieno[3,2-b]pyridine-6-carbonitrile] | 226 to 228 °C | – | – |
| COc1cc(Nc2c(C#N)cnc3sc(-c4ccc(CN5CCOCC5)cc4)cc23)c(Cl)cc1Cl | 106 to 108 °C | – | – |
| COC(=O)CCCc1cc2c(Nc3cc(OC)c(OC)c(OC)c3)c(C#N)cnc2s1 [Example 29, 4-[5-Cyano-4-(3,4,5-trimethoxyphenylamino)-thieno[2,3-b]pyridin-2-yl]-butyric acid methyl ester] | 101 to 103 °C | – | – |
| COc1cc(Nc2c(C#N)cnc3cc(C#CCN4CCN(C)CC4)sc23)c(Cl)cc1Cl | 172 to 173 °C | – | – |
| COc1cc(Nc2c(C#N)cnc3cc(/C=C/C(=O)O)sc23)c(Cl)cc1Cl [Example 53, (2E)-3-(6-Cyano-7-[(2,4-dichloro-5-methoxyphenyl)amino]thieno[3,2-b]pyridin-2-yl)prop-2-enoate] | – | – | Src cells % inh at 100 μM ([1]; Table 1, at 100 μM): 45% |

The next lines start with results.

| melting point | Structure (SMILES) | pIC50 [1, 3] | also measured |
| --- | --- | --- | --- |
| 260 to 262 °C | N#Cc1cnc2cc(I)sc2c1Nc1ccc(Oc2ccccc2)cc1 [Example 42, 2-Iodo-7-[(4-phenoxyphenyl)amino]thieno[3,2-b]pyridine-6-carbonitrile] | – | inhibition at 100 µM [1, 2]: 5% |
| 199 to 201 °C | CN1CCN(Cc2ccc(-c3cc4ncc(C#N)c(Nc5ccc(Oc6ccccc6)cc5)c4s3)cc2)CC1 [Example 44, 2-[4-(4-Methylpiperazin-1-ylmethyl)phenyl]-7-[(4-phenoxyphenyl)amino]thieno[3,2-b]pyridine-6-carbonitrile] | 5.62 | – |
| 290 to 291 °C | Cn1ccnc1Sc1ccc(Nc2c(C#N)cnc3cc(I)sc23)cc1Cl [Example 82, 7-({3-chloro-4-[(1-methyl-1H-imidazol-2-yl)thio]phenyl}amino)-2-iodothieno[3,2-b]pyridine-6-carbonitrile] | – | – |
| 248 to 250 °C | N#Cc1cnc2cc(Br)sc2c1Nc1ccc(Oc2ccccc2)cc1 [Example 48, 2-Bromo-7-[(4-phenoxyphenyl)amino]thieno[3,2-b]pyridine-6-carbonitrile] | – | inhibition at 100 µM [1, 2]: 30% |
| 233 to 234 °C | COc1cc(Nc2c(C#N)cnc3cc(I)sc23)c(Cl)cc1Cl [Example 4, 7-[(2,4-Dichloro-5-methoxyphenyl)amino]-2-iodothieno[3,2-b]pyridine-6-carbonitrile] | 5.51 | – |
| 279 to 281 °C | Cn1ccnc1Sc1ccc(Nc2c(C#N)cnc3cc(-c4ccc(C=O)cc4)sc23)cc1Cl [Example 97, 7-({3-chloro-4-[(1-methyl-1H-imidazol-2-yl)thio]phenyl}amino)-2-(4-formylphenyl)thieno[3,2-b]pyridine-6-carbonitrile] | – | – |
| 240 to 241 °C | N#Cc1cnc2cc(/C=C/c3ccncc3)sc2c1Nc1ccc(Oc2ccccc2)cc1 [Example 49, 7-[(4-Phenoxyphenyl)amino]-2-[(E)-2-pyridin-4-ylethenyl]thieno[3,2-b]pyridine-6-carbonitrile] | – | inhibition at 100 µM [1, 2]: 14% |
| 239 to 241 °C | CN(C)c1ccc(-c2cc3ncc(C#N)c(Nc4ccc(Cl)cc4Cl)c3s2)cc1 [Example 126, 7-[(2,4-dichlorophenyl)amino]-2-[4-(dimethylamino)phenyl]thieno[3,2-b]pyridine-6-carbonitrile] | – | – |
| 232 to 233 °C | CCOc1cc(Nc2c(C#N)cnc3cc(I)sc23)c(Cl)cc1Cl [Example 110, 7-[(2,4-dichloro-5-ethoxyphenyl)amino]-2-iodothieno[3,2-b]pyridine-6-carbonitrile] | – | – |
| 230 to 233 °C | N#Cc1cnc2cc(I)sc2c1Nc1ccc(Cl)cc1Cl [Example 102, 7-[(2,4-dichlorophenyl)amino]-2-iodothieno[3,2-b]pyridine-6-carbonitrile] | – | – |
| 170 to 171 °C | N#Cc1cnc2cc(-c3ccc(C=O)cc3)sc2c1Nc1ccc(Cl)cc1Cl [Example 115, 7-[(2,4-dichlorophenyl)amino]-2-(4-formylphenyl)thieno[3,2-b]pyridine-6-carbonitrile] | – | – |
